Results taken from PubChem BioAssay (NCI).
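Following 48 hours of exposure in 96-well plates, responses at five concentrations were used to interpolate endpoints linearly. At the TGI there is no net growth.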

Columns and labels:
Test in all cases: growth of human tumour cells (NCI), 48 h
[1] = tested on: A498 renal
[2] = tested on: ACHN renal
[3] = tested on: CCRF-CEM leukemia
[4] = tested on: HCT-116 colon
[5] = tested on: M14 melanoma
[6] = tested on: NCI-H460 lung
[7] = tested on: OVCAR-3 ovarian
[8] = tested on: OVCAR-4 ovarian
[9] = tested on: RPMI-8226 leukemia
[10] = tested on: SF-295 CNS
[11] = tested on: SK-MEL-5 melanoma
[12] = tested on: SN12C renal
[13] = tested on: TK-10 renal
[14] = tested on: U251 CNS
[15] = tested on: UO-31 renal
[16] = tested on: BT-549 breast
[17] = tested on: LOX IMVI melanoma
[18] = tested on: DU-145 prostate
[19] = tested on: T-47D breast

| SMILES | TGI [1] [µM] | TGI [2] [µM] | TGI [3] [µM] | TGI [4] [µM] | TGI [5] [µM] | TGI [6] [µM] | TGI [7] [µM] | TGI [8] [µM] | TGI [9] [µM] | TGI [10] [µM] | TGI [11] [µM] | TGI [12] [µM] | TGI [13] [µM] | TGI [14] [µM] | TGI [15] [µM] | TGI [16] [µM] | TGI [17] [µM] | TGI [18] [µM] | TGI [19] [µM] |
| --- | --- | --- | --- | --- | --- | --- | --- | --- | --- | --- | --- | --- | --- | --- | --- | --- | --- | --- | --- |
| COc1ccc2c(c1)OC(c1ccccc1O)CC2=O (centres undefined) | > 100 | > 100 | > 100 | > 100 | > 100 | > 100 | 96.8 | > 100 | > 100 | > 100 | > 100 | > 100 | > 100 | > 100 | 96.8 |  |  |  |  |
| Cc1ccc(S(=O)(=O)Nn2c(O)c(C#N)c(-c3ccc(N(C)C)cc3)c(C#N)c2=O)cc1 | > 50 | > 50 | > 50 | > 50 |  | > 50 |  | > 50 | 43.4 | 5.32 | > 50 | > 50 | > 50 | > 50 |  | > 50 | > 50 |  |  |
| COC(=O)N/N=C(/Cc1occc(=O)c1O)C(=O)Nc1ccc([N+](=O)[O-])cc1[N+](=O)[O-] | > 100 | > 100 | > 100 | > 100 | > 100 | > 100 |  | > 100 | > 100 | > 100 | > 100 | > 100 | > 100 | > 100 | > 100 |  | > 100 |  |  |
| CC(C)N1[C@@H]2CCCC[C@H]2N(C(C)C)P1(=O)C(=O)/C=C/c1ccccc1 | 16.9 | 8.62 |  | 3.73 | 5.49 | 10.3 | 5.74 | 3.39 | 9.32 | 23.4 | 3.44 | 3.96 | 12.9 | 16.5 | 3.13 | 14.5 | 4.55 | 4.94 |  |
| O=C1NC2C(CCO)CC=C[C@H]2c2cc3c(cc21)OCO3 (some centres undefined) |  | > 100 | > 100 | > 100 | > 100 | > 100 | > 100 |  | > 100 | > 100 |  | > 100 | > 100 | > 100 | > 100 |  | > 100 |  |  |
| Cn1c(=O)n2n(c1=O)[C@@H](c1ccccc1)[C@H]2c1ccccc1 | > 100 | > 100 | > 100 | > 100 | > 100 | > 100 | > 100 | > 100 |  | > 100 | > 100 | > 100 | > 100 | > 100 | > 100 | > 100 | > 100 |  |  |
| O=c1c2cc(S(=O)(=O)Nc3c(Cl)cccc3Cl)ccc2ncn1NS(=O)(=O)c1ccc2ccccc2c1 |  | > 62.5 | > 62.5 | > 62.5 | > 62.5 | > 62.5 | > 62.5 | > 62.5 | > 62.5 | > 62.5 |  | > 62.5 | > 62.5 | > 62.5 | > 62.5 | > 62.5 | > 62.5 | > 62.5 |  |
| COC(=O)[C@@H]1OC(C)(c2ccccc2)O[C@H]1C(=O)OC | > 100 | > 100 | > 100 |  | > 100 | > 100 | > 100 | > 100 | > 100 | > 100 | > 100 |  | > 100 | > 100 | > 100 |  | > 100 | > 100 | > 100 |
| CC1(O)Oc2ccc3ccccc3c2C=C1C(N)=O (centres undefined) | > 100 | > 100 | > 100 | > 100 | > 100 | > 100 |  | > 100 | > 100 | > 100 | > 100 |  | > 100 | > 100 | > 100 |  | > 100 | > 100 | > 100 |
| CC[C@H]1C=CCC[C@@]2(C[C@@H]3CC[C@H]4[C@H](C(=O)OCCCCCCCCCCCCCCCC(=O)N(CCCN)C[C@@H](O)CCN)[C@]5(CCC[C@@H](C)O5)NC(=[N+]34)N2)O1 | 3.09 | 1.84 |  | 1.31 | 0.495 | 1.87 | 3.02 | 2.44 | 0.833 | 3.31 | 1.31 | 2.19 | 2.98 | 1.44 | 1.69 | 4.27 | 1.38 | 2.3 |  |
| COC1=CC(=O)C2C(C1=O)C(c1ccc(OC)c(OC)c1)[C@H]2C (some centres undefined) | > 100 | 33.4 | 62.4 | 31.9 | 34.9 | > 100 | 40.1 | 30.6 | 38.4 | > 100 | 61.4 |  | 33.3 | > 100 | > 100 |  | 40.4 |  |  |
| C/C(=N/NC(N)=S)C(CN(C)C)C(C1=C(O)c2ccccc2OC1)c1ccccc1 (centres undefined) | > 100 | > 100 | > 100 | > 100 | > 100 | > 100 | > 100 | > 100 | > 100 | > 100 | > 100 | > 100 | > 100 | > 100 | > 100 |  | > 100 |  |  |
| CN(C)c1nc(=NCc2cccnc2)ss1 |  |  | > 10 |  | > 10 |  |  | > 10 | > 10 | > 10 | > 10 | > 10 | > 10 |  |  |  | > 10 | > 10 | > 10 |
| CCO/C=C(\C(=O)OC)S(=O)(=O)c1ccc(C)cc1 |  | > 100 | > 100 | > 100 | > 100 | > 100 | > 100 | > 100 | > 100 | > 100 | > 100 | > 100 | > 100 | > 100 | > 100 |  | > 100 | > 100 | > 100 |
| O=C(N/N=C(\c1nc2ccc(Cl)cc2[nH]c1=O)C(O)c1ccccc1Cl)c1ccncc1 (centres undefined) | > 100 | > 100 | > 100 | > 100 | > 100 | > 100 | > 100 | > 100 |  | > 100 | > 100 |  | > 100 |  | > 100 |  | > 100 |  |  |
| OC(CC(O)(C(F)(F)F)C(F)(F)F)C(O)c1ccco1 (centres undefined) | > 10 | > 10 | > 10 | > 10 | > 10 | > 10 | > 10 | > 10 | > 10 | > 10 | > 10 | > 10 | > 10 | > 10 | > 10 |  | > 10 | > 10 | > 10 |
| CN1N=C2c3ccccc3CC[C@H]2C1c1cccc(O)c1 (some centres undefined) | > 100 | > 100 | > 100 | > 100 | > 100 | > 100 | > 100 | > 100 | > 100 | > 100 |  | > 100 | > 100 | > 100 | > 100 |  | > 100 |  |  |
| Fc1ccc2c3c([nH]c2c1)CCNC3 | 65.9 | > 100 | > 100 | > 100 | > 100 | > 100 |  | > 100 | > 100 | > 100 | > 100 | > 100 | > 100 | > 100 | 99.7 |  | > 100 | > 100 | > 100 |
| O=C1C=C2CC[C@H]3[C@@H]4CC[C@H](OC(=O)c5cccc6cc7ccccc7nc56)[C@H]4CC[C@@H]3[C@H]2CC1 | > 100 | > 100 | > 100 | > 100 | > 100 |  | > 100 | > 100 | > 100 | > 100 | > 100 | > 100 | > 100 | > 100 | > 100 | > 100 | 29.7 | > 100 |  |
| CCN(CC)CCCCC1CCN(CC(=O)N2c3cc(Cl)ccc3NC(=O)CC2C)CC1 (centres undefined) | > 100 | > 100 | > 100 | > 100 | > 100 | > 100 | > 100 | > 100 | > 100 | > 100 | > 100 | > 100 |  | > 100 | > 100 |  | > 100 |  |  |
| COC(=O)c1ccc(NCC2=CC(=O)C=CC2=O)cc1 | 27.6 | 27 |  | 30.4 | 15.8 |  |  | 26.5 | 7.22 |  | 32.5 |  | 22.7 | 28.7 | 19.5 | 27 | 17.8 | 28.8 |  |
| Nc1ncnc2c1ncn2C1CC(OC2CCCCO2)C(CO)O1 (centres undefined) | > 100 | > 100 | > 100 | > 100 | > 100 | > 100 | > 100 | > 100 | > 100 | > 100 |  | > 100 | > 100 | > 100 | > 100 |  | > 100 |  |  |
| CCCc1c(C(=O)OCC)[nH]c(C(=O)CCC(=O)c2[nH]c(C(=O)OCC)c(CCC)c2C(=O)OCC)c1C(=O)OCC | > 100 | > 100 | > 100 | > 100 | > 100 | > 100 | > 100 | > 100 | > 100 | > 100 | > 100 | > 100 | > 100 | > 100 | > 100 |  | > 100 |  |  |
| O=C(/C=C/c1ccc2c(c1)OCO2)CC(=O)/C=C/c1ccc2c(c1)OCO2 |  | > 100 | > 100 | > 100 | > 100 | > 100 | > 100 | 68.5 | > 100 | > 100 | > 100 | > 100 | > 100 | > 100 | > 100 |  | > 100 |  | > 100 |
| Cc1cn(C2CC(NC(=NCC3OC(n4cnc5c(N)ncnc54)CC3O)NC#N)C(CO)O2)c(=O)[nH]c1=O (centres undefined) | > 100 | > 100 | > 100 | > 100 | > 100 | > 100 | > 100 | > 100 |  | > 100 | > 100 | > 100 | > 100 | > 100 | > 100 |  | > 100 | > 100 | > 100 |
| CCOC(=O)Nn1c(C)cc(C(=O)OC)c1C | > 100 | > 100 | > 100 | > 100 | > 100 | > 100 | > 100 |  | > 100 | > 100 | > 100 | > 100 | > 100 | > 100 | > 100 |  | > 100 |  |  |
| COC(=O)C1(C(=O)OC)CC2=C(S(=O)(=O)c3ccccc3)C[C@H](C#N)[C@H]2C1 | > 100 | > 100 | > 100 | > 100 | > 100 |  |  | > 100 |  | > 100 | > 100 | > 100 | > 100 | > 100 | > 100 |  | > 100 | > 100 | > 100 |
| c1cc(NC2=NCCO2)c2c(c1)OCO2 | > 100 | > 100 | > 100 | > 100 | > 100 | > 100 | > 100 | > 100 | > 100 | > 100 | > 100 | > 100 |  | > 100 | > 100 |  | > 100 | > 100 | > 100 |
| CC1=C2CN(C(=O)OCC(C)C)CCC2C2=C(C(=O)c3ccccc3C2=O)C1C (centres undefined) |  |  | > 10 |  | > 10 |  |  | > 10 | > 10 | > 10 | > 10 | > 10 | > 10 |  |  |  | > 10 | > 10 | > 10 |
